Results taken from ChEMBL document CHEMBL4396872, “Pharmacokinetics-Driven Optimization of 4(3 H)-Pyrimidinones as Phosphodiesterase Type 5 Inhibitors Leading to TPN171, a Clinical Candidate for the Treatment of Pulmonary Arterial Hypertension” (J Med Chem, 2019).
One block for each compound: values may come before it. Active and inactive are the calls of the source. No cut-off for these calls is given here.

Columns and labels:
[1] = Metabolic stability in human liver microsomes assessed as parent compound remaining at 1 uM in presence of NADPH after 30 mins by LC-MS/MS analysis; type: ADME, Microsome; conditions: read-out: Stability
Homo sapiens = species on record: Homo sapiens; assay: Selectivity ratio of IC50 for N-terminal GST-tagged human PDE6C to IC50 for N-terminal GST-tagged human PDE5A1
[2] = target: T1, cGMP-specific 3',5'-cyclic phosphodiesterase (Homo sapiens, UniProt O76074); assay: Inhibition of N-terminal GST-tagged human PDE5A1 expressed in baculovirus infected sf9 cells using [3H]cGMP as substrate measured after 30 mins by scintillation proximity assay
Rattus norvegicus [3] = assay: […] activity in MCT-induced pulmonary arterial hypertension Sprague-Dawley rat model assessed as reduction in mean pulmonary artery pressure at 1 mg/kg administered once daily for 21 days starting from 21 days post-MCT challenge by right cardiac catheter method; type: functional, organism-based
Rattus norvegicus [4] = assay: […] activity in MCT-induced pulmonary arterial hypertension Sprague-Dawley rat model assessed as reduction in mean pulmonary artery pressure at 100 mg/kg administered once daily for 21 days starting from 21 days post-MCT challenge by right cardiac catheter method; type: functional, organism-based
Rattus norvegicus [5] = assay: […] activity in MCT-induced pulmonary arterial hypertension Sprague-Dawley rat model assessed as reduction in mean pulmonary artery pressure at 25 mg/kg administered once daily for 21 days starting from 21 days post-MCT challenge by right cardiac catheter method; type: functional, organism-based
[6] = target: T1, cGMP-specific 3',5'-cyclic phosphodiesterase
[7] = Tmax in Sprague-Dawley rat at 1 mg/kg, po measured up to 24 hrs by LC-MS/MS analysis; type: ADME, organism-based; conditions: in vivo
[8] = AUC (0 to t) in Sprague-Dawley rat at 1 mg/kg, iv measured up to 24 hrs by LC-MS/MS analysis; type: ADME, organism-based; design: time < 24 hr, dose 1 mg/kg, route intravenous; conditions: in vivo
[9] = Tmax in Beagle dog at 0.5 mg/kg, po measured up to 24 hrs by LC-MS/MS analysis; type: ADME, organism-based, Canis lupus familiaris; conditions: in vivo
Rattus norvegicus [10] = assay: Antihypertensive activity in spontaneously hypertensive rat assessed as reduction in mean arterial pressure at 20 mg/kg administered via single gavage measured up to 24 hrs; type: functional, organism-based
[11] = target: T1, cGMP-specific 3',5'-cyclic phosphodiesterase; remark: listed apart in the source
[12] = Half-life in Beagle dog at 0.5 mg/kg, po measured up to 24 hrs by LC-MS/MS analysis; type: ADME, organism-based, Canis lupus familiaris; conditions: in vivo
[13] = MRT in Beagle dog at 0.5 mg/kg, iv measured up to 24 hrs by LC-MS/MS analysis; type: ADME, organism-based, Canis lupus familiaris; conditions: in vivo
[14] = Cmax in Sprague-Dawley rat at 1 mg/kg, po measured up to 24 hrs by LC-MS/MS analysis; type: ADME, organism-based; design: dose 1 mg/kg, route oral; conditions: in vivo
[15] = Clearance in Sprague-Dawley rat at 1 mg/kg, iv measured up to 24 hrs by LC-MS/MS analysis; type: ADME, organism-based; conditions: in vivo
[16] = AUC (0 to t) in Beagle dog at 0.5 mg/kg, iv measured up to 24 hrs by LC-MS/MS analysis; type: ADME, organism-based, Canis lupus familiaris; design: time < 24 hr, dose 0.5 mg/kg, route intravenous; conditions: in vivo
[17] = Half-life in Sprague-Dawley rat at 1 mg/kg, po measured up to 24 hrs by LC-MS/MS analysis; type: ADME, organism-based; conditions: in vivo
Phosphodiesterase 1 = Phosphodiesterase 1 (Homo sapiens, UniProt P54750+Q01064+Q14123); assay: Inhibition of N-terminal GST-tagged human PDE1 expressed in baculovirus infected sf9 cells using [3H]cAMP as substrate measured after 30 mins by scintillation proximity assay
[18] = Oral bioavailability in Sprague-Dawley rat at 1 mg/kg measured up to 24 hrs by LC-MS/MS analysis; type: ADME, organism-based; conditions: in vivo
[19] = target: Cone cGMP-specific 3',5'-cyclic phosphodiesterase subunit alpha' (Homo sapiens, UniProt P51160); assay: Inhibition of N-terminal GST-tagged human PDE6C expressed in baculovirus infected sf9 cells using [3H]cGMP as substrate measured after 30 mins by scintillation proximity assay
[20] = MRT in Beagle dog at 0.5 mg/kg, po measured up to 24 hrs by LC-MS/MS analysis; type: ADME, organism-based, Canis lupus familiaris; conditions: in vivo
[21] = Clearance in Beagle dog at 0.5 mg/kg, iv measured up to 24 hrs by LC-MS/MS analysis; type: ADME, organism-based, Canis lupus familiaris; conditions: in vivo
Rattus norvegicus [22] = assay: Antihypertensive activity in spontaneously hypertensive rat assessed as reduction in mean arterial pressure at 20 mg/kg administered via single gavage and measured at 2 hrs; type: functional, organism-based
[23] = Cmax in Beagle dog at 0.5 mg/kg, po measured up to 24 hrs by LC-MS/MS analysis; type: ADME, organism-based, Canis lupus familiaris; design: dose 0.5 mg/kg, route oral; conditions: in vivo
Rattus norvegicus [24] = assay: Antihypertensive activity in spontaneously hypertensive rat assessed as reduction in mean arterial pressure at 20 mg/kg administered via single gavage and measured at 4 hrs; type: functional, organism-based
[25] = Volume of distribution at steady state in Beagle dog at 0.5 mg/kg, iv measured up to 24 hrs by LC-MS/MS analysis; type: ADME, organism-based, Canis lupus familiaris; conditions: in vivo, read-out: Vdss
[26] = AUC (0 to infinity) in Sprague-Dawley rat at 1 mg/kg, po measured up to 24 hrs by LC-MS/MS analysis; type: ADME, organism-based; design: dose 1 mg/kg, route oral, time infinity; conditions: in vivo
[27] = target: Dual 3',5'-cyclic-AMP and -GMP phosphodiesterase 11A (Homo sapiens, UniProt Q9HCR9); assay: Inhibition of N-terminal GST-tagged human PDE11A4 expressed in baculovirus infected sf9 cells using [3H]cGMP as substrate measured after 30 mins by scintillation proximity assay
[28] = MRT in Sprague-Dawley rat at 1 mg/kg, po measured up to 24 hrs by LC-MS/MS analysis; type: ADME, organism-based; conditions: in vivo
[29] = target: T1, cGMP-specific 3',5'-cyclic phosphodiesterase; remark: listed apart in the source
[30] = AUC (0 to infinity) in Beagle dog at 0.5 mg/kg, po measured up to 24 hrs by LC-MS/MS analysis; type: ADME, organism-based, Canis lupus familiaris; design: dose 0.5 mg/kg, time infinity, route oral; conditions: in vivo
[31] = AUC (0 to infinity) in Sprague-Dawley rat at 1 mg/kg, iv measured up to 24 hrs by LC-MS/MS analysis; type: ADME, organism-based; design: dose 1 mg/kg, time infinity, route intravenous; conditions: in vivo
[32] = Terminal half life in human at 5 mg, po administered once daily measured under phase 1 clinical trials; type: ADME, organism-based; conditions: in vivo, read-out: beta t1/2 (converted)
[33] = AUC (0 to infinity) in Beagle dog at 0.5 mg/kg, iv measured up to 24 hrs by LC-MS/MS analysis; type: ADME, organism-based, Canis lupus familiaris; design: dose 0.5 mg/kg, time infinity, route intravenous; conditions: in vivo
[34] = Oral bioavailability Beagle dog at 0.5 mg/kg measured up to 24 hrs by LC-MS/MS analysis; type: ADME, organism-based, Canis lupus familiaris; conditions: in vivo
[35] = MRT in Sprague-Dawley rat at 1 mg/kg, iv measured up to 24 hrs by LC-MS/MS analysis; type: ADME, organism-based; conditions: in vivo
[36] = AUC (0 to t) in Beagle dog at 0.5 mg/kg, po measured up to 24 hrs by LC-MS/MS analysis; type: ADME, organism-based, Canis lupus familiaris; design: time < 24 hr, dose 0.5 mg/kg, route oral; conditions: in vivo
[37] = AUC (0 to t) in Sprague-Dawley rat at 1 mg/kg, po measured up to 24 hrs by LC-MS/MS analysis; type: ADME, organism-based; design: time < 24 hr, dose 1 mg/kg, route oral; conditions: in vivo
[38] = Volume of distribution at steady state in Sprague-Dawley rat at 1 mg/kg, iv measured up to 24 hrs by LC-MS/MS analysis; type: ADME, organism-based; conditions: in vivo, read-out: Vdss
[39] = Half-life in Sprague-Dawley rat at 1 mg/kg, iv measured up to 24 hrs by LC-MS/MS analysis; type: ADME, organism-based; conditions: in vivo
[40] = Half-life in Beagle dog at 0.5 mg/kg, iv measured up to 24 hrs by LC-MS/MS analysis; type: ADME, organism-based, Canis lupus familiaris; conditions: in vivo
[41] = Tmax in Sprague-Dawley rat at 1 mg/kg, po measured up to 24 hrs by HPLC analysis; type: ADME, organism-based; conditions: in vivo
[42] = Half-life in Sprague-Dawley rat at 4 mg/kg, iv measured up to 24 hrs by HPLC analysis; type: ADME, organism-based; conditions: in vivo
[43] = Clearance in Sprague-Dawley rat at 4 mg/kg, iv measured up to 24 hrs by HPLC analysis; type: ADME, organism-based; conditions: in vivo
Rattus norvegicus [44] = assay: Antihypertensive activity in spontaneously hypertensive rat assessed as reduction in mean arterial pressure at 20 mg/kg administered via single gavage after 6 hrs; type: functional, organism-based
[45] = Cmax in Sprague-Dawley rat at 1 mg/kg, po measured up to 24 hrs by HPLC analysis; type: ADME, organism-based; design: dose 1 mg/kg, route oral; conditions: in vivo
[46] = Half-life in Sprague-Dawley rat at 1 mg/kg, po measured up to 24 hrs by HPLC analysis; type: ADME, organism-based; conditions: in vivo
[47] = Oral bioavailability in Sprague-Dawley rat at 1 mg/kg measured up to 24 hrs by HPLC analysis; type: ADME, organism-based; conditions: in vivo
[48] = Volume of distribution at steady state in Sprague-Dawley rat at 4 mg/kg, iv measured up to 24 hrs by HPLC analysis; type: ADME, organism-based; conditions: in vivo, read-out: Vdss

Chain of Cone cGMP-specific 3',5'-cyclic phosphodiesterase subunit alpha' (P51160 whole entry): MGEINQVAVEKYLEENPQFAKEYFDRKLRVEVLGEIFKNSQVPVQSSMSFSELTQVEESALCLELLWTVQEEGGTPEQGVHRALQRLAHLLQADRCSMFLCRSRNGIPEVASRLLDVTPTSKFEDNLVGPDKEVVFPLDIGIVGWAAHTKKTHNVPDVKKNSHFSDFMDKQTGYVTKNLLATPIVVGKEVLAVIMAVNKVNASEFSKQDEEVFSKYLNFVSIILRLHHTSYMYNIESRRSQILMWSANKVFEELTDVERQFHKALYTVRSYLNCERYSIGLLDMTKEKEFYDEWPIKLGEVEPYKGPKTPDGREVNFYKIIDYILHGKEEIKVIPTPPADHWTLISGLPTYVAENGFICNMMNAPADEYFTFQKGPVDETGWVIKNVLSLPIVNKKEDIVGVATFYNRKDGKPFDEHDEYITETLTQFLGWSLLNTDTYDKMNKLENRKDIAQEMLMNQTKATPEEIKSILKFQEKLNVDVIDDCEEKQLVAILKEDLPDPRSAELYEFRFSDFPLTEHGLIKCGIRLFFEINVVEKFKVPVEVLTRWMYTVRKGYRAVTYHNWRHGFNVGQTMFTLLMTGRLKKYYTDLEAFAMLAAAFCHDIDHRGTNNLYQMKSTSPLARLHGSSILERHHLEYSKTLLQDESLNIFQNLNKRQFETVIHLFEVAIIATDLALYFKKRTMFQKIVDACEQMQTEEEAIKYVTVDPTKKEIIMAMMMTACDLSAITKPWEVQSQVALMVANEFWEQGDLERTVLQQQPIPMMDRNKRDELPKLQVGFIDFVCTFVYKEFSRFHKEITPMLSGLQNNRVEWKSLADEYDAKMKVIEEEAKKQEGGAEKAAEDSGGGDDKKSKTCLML
Chain of Dual 3',5'-cyclic-AMP and -GMP phosphodiesterase 11A (Q9HCR9 whole entry): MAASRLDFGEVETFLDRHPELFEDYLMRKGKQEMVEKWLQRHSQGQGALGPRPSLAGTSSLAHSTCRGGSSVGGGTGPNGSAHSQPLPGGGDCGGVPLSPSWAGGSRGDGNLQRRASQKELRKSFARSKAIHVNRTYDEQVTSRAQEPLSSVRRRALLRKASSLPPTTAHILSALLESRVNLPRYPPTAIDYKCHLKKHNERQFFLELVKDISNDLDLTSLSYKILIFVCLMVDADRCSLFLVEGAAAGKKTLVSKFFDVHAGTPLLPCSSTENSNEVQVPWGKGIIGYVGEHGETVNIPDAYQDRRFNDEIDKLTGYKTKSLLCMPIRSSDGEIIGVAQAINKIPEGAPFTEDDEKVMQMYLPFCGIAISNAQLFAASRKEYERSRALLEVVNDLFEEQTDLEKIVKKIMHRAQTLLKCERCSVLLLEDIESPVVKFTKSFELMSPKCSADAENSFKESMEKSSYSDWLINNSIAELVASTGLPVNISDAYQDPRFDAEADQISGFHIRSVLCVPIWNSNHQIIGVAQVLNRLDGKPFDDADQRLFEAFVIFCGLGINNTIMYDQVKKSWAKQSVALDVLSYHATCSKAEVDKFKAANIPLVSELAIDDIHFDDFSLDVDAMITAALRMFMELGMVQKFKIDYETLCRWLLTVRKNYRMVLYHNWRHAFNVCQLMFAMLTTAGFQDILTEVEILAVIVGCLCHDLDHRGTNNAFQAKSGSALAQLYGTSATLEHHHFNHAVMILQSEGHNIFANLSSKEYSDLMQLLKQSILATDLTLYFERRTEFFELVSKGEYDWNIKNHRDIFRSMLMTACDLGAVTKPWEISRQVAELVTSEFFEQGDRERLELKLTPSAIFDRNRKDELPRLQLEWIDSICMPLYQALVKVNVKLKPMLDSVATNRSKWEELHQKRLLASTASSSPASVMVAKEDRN

IC50 [2]: 2.02 nM
Ratio IC50 (Homo sapiens): 20
Structure (SMILES): CCCOc1ccc(S(=O)(=O)N2CCC[C@H]2C(=O)O)cc1-c1nc(CC)c(CC)c(=O)[nH]1

deltaH [6]: -21.5 kcal/mol
Tmax [7]: 2.8 h
AUCt [8]: 403 ng·h/mL
Tmax [9]: 1.9 h
deltaG [11]: -9.81 kcal/mol
half-life [12]: 4.89 h
MRT [13]: 6.07 h
Cmax [14]: 43.9 ng/mL
remaining at 0.5 h, 1 µM [1]: 91%
clearance [15]: 37.7 mL/min/kg
AUCt [16]: 752 ng·h/mL
half-life [17]: 2.82 h
IC50 (Phosphodiesterase 1): 3640 nM
bioavailability [18]: 66.4%
IC50 [19]: 19.8 nM
MRT [20]: 7.21 h
clearance [21]: 10.8 mL/min/kg
Cmax [23]: 66.5 ng/mL
Vd [25]: 3.83 L/kg
AUC [26]: 284 ng·h/mL
IC50 [27]: 998 nM
MRT [28]: 5.56 h
-TdeltaS [29]: 11.7 kcal/mol
AUC [30]: 514 ng·h/mL
AUC [31]: 412 ng·h/mL
half-life [32]: 10.9 h
AUC [33]: 773 ng·h/mL
bioavailability [34]: 67%
MRT [35]: 2.22 h
AUCt [36]: 495 ng·h/mL
AUCt [37]: 268 ng·h/mL
Vd [38]: 4.97 L/kg
half-life [39]: 2.4 h
half-life [40]: 4.5 h
Structure (SMILES): CCCOc1ccc(NC(=O)CN2CCN(C)CC2)cc1-c1nc(CC)c(CC)c(=O)[nH]1
Activity (Rattus norvegicus [10]): Active
Activity (Rattus norvegicus [3]): Active
Activity (Rattus norvegicus [22]): Active
Activity (Rattus norvegicus [24]): Active
Activity (Rattus norvegicus [4]): Active
Activity (Rattus norvegicus [5]): Active

Tmax [41]: 1.6 h
half-life [42]: 1.1 h
clearance [43]: 30.5 mL/min/kg
Cmax [45]: 76 ng/mL
half-life [46]: 0.65 h
bioavailability [47]: 34%
Vd [48]: 1.6 L/kg
Structure (SMILES): CCCc1nn(C)c2c(=O)[nH]c(-c3cc(S(=O)(=O)N4CCN(C)CC4)ccc3OCC)nc12
Activity (Rattus norvegicus [3]): Active
Activity (Rattus norvegicus [44]): inactive
Activity (Rattus norvegicus [22]): Active
Activity (Rattus norvegicus [24]): inactive
Activity (Rattus norvegicus [4]): Active
Activity (Rattus norvegicus [5]): Active

IC50 [2]: 1.55 nM
Ratio IC50 (Homo sapiens): 17
Structure (SMILES): CCCOc1ccc(NC(=O)C(=O)N2CCN(C)CC2)cc1-c1nc(CC)c(CC)c(=O)[nH]1

More lines, now with the values behind:

Structure (SMILES): CCCOc1ccc(NS(C)(=O)=O)cc1-c1nc(CC)c(CC)c(=O)[nH]1
remaining at 0.5 h, 1 µM [1]: 27%
Ratio IC50 (Homo sapiens): 28

Structure (SMILES): COc1ccccc1Oc1c(NS(=O)(=O)c2ccc(C(C)(C)C)cc2)nc(-c2ncccn2)nc1OCCO
Activity (Rattus norvegicus [3]): Active
Activity (Rattus norvegicus [4]): Active
Activity (Rattus norvegicus [5]): Active

Structure (SMILES): CCCOc1ccc(S(=O)(=O)NCCC(=O)O)cc1-c1nc(CC)c(CC)c(=O)[nH]1
Activity (Rattus norvegicus [10]): inactive
remaining at 0.5 h, 1 µM [1]: 100%
IC50 [2]: 1.69 nM
Ratio IC50 (Homo sapiens): 86

Structure (SMILES): CCCOc1ccc(NC(N)=O)cc1-c1nc(CC)c(CC)c(=O)[nH]1
Ratio IC50 (Homo sapiens): 17

Structure (SMILES): CCCOc1ccc(NC(=O)CC)cc1-c1nc(CC)c(CC)c(=O)[nH]1
Ratio IC50 (Homo sapiens): 11
